Values joined by “and” are separate entries in the source; they are usually repeats but may differ in a detail not shown here. Equal entries are not always repeated. Where two headings read alike, the source gives them in different places. Where a SMILES comes first, the peptide text is derived from it.
Key:
[1] = biological target: T1, retroviral protease (HIV-1) (Human immunodeficiency virus type 1 group M subtype B, UniProt P04585); test: fluorometric assay for HIV protease (Toth and Marshall); type: biochemical; details: for IC50: where isomers were resolved, activities of both isomers are shown; for inhibition at 10 µM: read-out: percent at 10 μM, at 10 μM
T1 construct: the retroviral protease, is contained within the polyprotein
Procedure: These peptide analogs were assayed in solution for their ability to inhibit retroviral protease (HIV-1) by a fluorometric assay for HIV protease as described by Toth and Marshall, Int. J. Peptide Protein Res. 36, 546-550 (1990), and in U.S. Pat. No. 5,011,910.
Table 2, below, sets forth the median inhibitory concentration, IC50, (μM) for the compounds thus tested. In those cases where the isomers were resolved, the activities of both isomers are shown.

HIV protease [2] = biological target: T2, HIV protease (Human immunodeficiency virus type 1 group M subtype B, UniProt P04585); type: biochemical; parameters: made in house; host or cells: chemical synthesis (gift of Dr. Stephen Kent, Caltech) or E. coli (gift of Dr. George Glover, Monsanto); details: for Relative Rate: relative cleavage rate: percent of standard substrate concentration cleaved in twenty minutes, control Ac-Thr-Ile-Met-Met-Gln-Arg-NH2 = 1.00
Procedure: HIV protease assay. The HIV protease assay was conducted using either synthetic HIV protease [Schneider and Kent, Cell 54, 363 (1988)] kindly supplied by Dr. Stephen Kent of Caltech, or cloned material expressed in E. coli supplied by Dr. George Glover of the Monsanto Company. […] Synthetic protease (1 mg/ml) was dissolved in a buffer (20 mM PIPES, 0.5% NP-40 detergent, 1 mM dithiothreitol), pH 6.5 . Substrates were also dissolved in the same buffer at 1 mg/ml concentration. 5 μl 1 of substrate and 5 μl of HIV protease were added to an Eppendorf tube which was centrifuged for one minute and incubated at 25° for the desired time. The reaction was stopped by the addition of 50 μl of 50% TFA. The sample was diluted with 200 μl of water and applied to a C4 HPLC column developed with 0.1% TFA for 5 min followed by a gradient of 0-50% acetonitrile in 50 min. For inhibitor studies, 5 μl of the protease solution was preincubated for 10 min with the 5 μl of inhibitor (dissolved in 10% DMSO and diluted to 1 mg/ml with buffer). Then 5 μl of test substrate, acetyl-Thr-Ile-Met-Met-Gln-Arg-NH2 was added in order to determine inhibition of cleavage. Reactions were stopped as above and cleavage rates were monitored by HPLC as above.
Substrate analogs were prepared in order to examine the relative hydrolysis rates of the various sites. […] Relative cleavage rates were measured by comparing the percent of a standard substrate concentration cleaved by the same concentration of enzyme in twenty minutes (linear portion of curve).

HIV protease [3] = biological target: T2, HIV protease; details: cited from earlier work

## CCCC[C@H](NC(=O)[C@@H](NC(=O)[C@@H](NC(=O)c1ccccc1N)[C@@H](C)O)[C@@H](C)CC)C(=O)CC(Cc1ccc2ccccc2c1)C(=O)N[C@@H](CCC(N)=O)C(=O)N[C@@H](CCCNC(=N)N)C(N)=O (stereo partly drawn) [Abz-Thr-Ile-Nle-.PSI.(K)2-Nal-Gln-Arg-NH2] (HELM PEPTIDE1{[Nc1ccccc1C(=O)[*:2]].T.I.[CCCC[C@H](N[*:1])C(=O)CC(Cc1ccc2ccccc2c1)C(=O)[*:2]].Q.R.[am]}$$$$V2.0)
[1]
  IC50: 4.8 nM

## CC[C@H](C)[C@H](NC(=O)[C@@H](NC(=O)c1ccccc1N)[C@@H](C)O)C(=O)N[C@@H](Cc1ccccc1)C(=O)CC(C)C(=O)N[C@@H](CCC(N)=O)C(=O)N[C@@H](CCCNC(=N)N)C(N)=O (stereo partly drawn) [Abz-Thr-Ile-Phe.PSI.(K)Ala-Gln-Arg-NH2] (HELM PEPTIDE1{[Nc1ccccc1C(=O)[*:2]].T.I.[CC(CC(=O)[C@H](Cc1ccccc1)N[*:1])C(=O)[*:2]].Q.R.[am]}$$$$V2.0)
[1]
  IC50: 33 nM

## CCCC[C@H](NC(=O)c1ccc2ccccc2n1)C(=O)CC(Cc1ccc2ccccc2c1)C(=O)N[C@@H](CCC(N)=O)C(=O)N[C@@H](CCCNC(=N)N)C(N)=O (stereo partly drawn) [Qua--Nle.psi.(K)2-Nal--Gln--Arg--NH2, Qua-Nle.PSI.(K)2-Nal-Gln-Arg-NH2]
[1]
  inhibition at 10 µM: 96%

## CCCC[C@H](NC(=O)[C@@H](NC(=O)c1ccc2ccccc2n1)[C@@H](C)CC)C(=O)CC(Cc1ccc2ccccc2c1)C(=O)N[C@@H](CCC(N)=O)C(=O)N[C@@H](CCCNC(=N)N)C(N)=O (stereo partly drawn) [Qua-Ile-Nle.PSI.(K)2-Nal-Gln-Arg-NH2]
[1]
  IC50: 8.5 nM

## CCCC[C@H](NC(=O)[C@@H](NC(=O)c1cnc2ccccc2n1)[C@@H](C)CC)C(=O)CC(Cc1ccc2ccccc2c1)C(=O)N[C@@H](CCC(N)=O)C(N)=O (stereo partly drawn) [Qui--Ile--Nle.psi.(K)2-Nal--Gln--NH2, Qui-Ile-Nle.PSI.(K)2-Nal-Gln-NH2]
[1]
  inhibition at 10 µM: 54%

## CCCC[C@H](NC(=O)c1cnc2ccccc2n1)C(=O)CC(Cc1ccc2ccccc2c1)C(=O)N[C@@H](CCC(N)=O)C(N)=O (stereo partly drawn) [Qui--Nle.psi.(K)2-Nal--Gln--NH2, Qui-Nle.PSI.(K)2-Nal-Gln-NH2]
[1]
  inhibition at 10 µM: 7%

## CCCC[C@H](NC(=O)[C@@H](NC(=O)[C@@H](NC(=O)c1cnc2ccccc2n1)[C@@H](C)O)[C@@H](C)CC)C(=O)CC(Cc1ccc2ccccc2c1)C(=O)N[C@@H](CCC(N)=O)C(N)=O (stereo partly drawn) [Qui-Thr-Ile-Nle.PSI.(K)2-Nal-Gln-NH2]
[1]
  IC50: 1110 nM and 8080 nM

## Aba--Thr--Ile--Nle--PnF--Gln--Arg--NH2
HIV protease [2]
  Relative Rate: 1.46

## Ac--Thr--Ile--Nle--Hle--Gln--Arg--NH2
HIV protease [2]
  Relative Rate: 0.95

## Ac-QNYPIV-NH2 [Ac--Gln--Asn--Tyr--Pro--Ile--Val--NH2]
HIV protease [2]
  Relative Rate: 0.04

## Ac-TIMMQR-NH2 [Ac--Thr--Ile--Met--Met--Gln--Arg--NH2, Ac-Thr-Ile-Met-Met-Gln-Arg-NH2]
HIV protease [2]; as substrate of HIV protease
  Km: 1400 µM
  Vmax: 725 nmol/min/mg
HIV protease [2]
  Relative Rate: 1.00

## SQNY-PI
HIV protease [3]
  cleavage by HIV protease: failed to be cleaved

## SQNY-PIV
HIV protease [3]; relative to VSQNYPIV
  rate of cleavage relative to the octapeptide: 90%

## VSQNYPIV
HIV protease [3]; gag p17/gag p24 cleavage site substrate
  Km: 2500 µM

## acetyl-QNY-PIV
HIV protease [3]
  cleavage by HIV protease: failed to be cleaved

Source: patent publication US5086165A, “Inhibitors of retroviral protease with a ketomethylene isosteric replaced amide bond” (Washington University, priority 1991, dated 1992)
